Patent US20030013658A1, “Small peptides and methods for treatment of asthma and inflammation” (Hisatek, LLC, priority 1997, published 2003)
Where no end group is shown, it is not given here. The star is where a group is joined. For = O=C*

Tested on: mast cell degranulation induced by Compound 48/80
Assay: Rat skin model: inhibition of Compound 48/80-induced mast cell degranulation (capillary permeability, trypan blue)
Format: in vivo
Details: 0.15 μg Compound 48/80
Procedure: The Rat Skin Model for Determination of Inhibition of Mast Cell Degranulation
In this model, the blood plasma of the experimental rat is labeled with the dye trypan blue. This soluble dye is carried in the bloodstream as a passive marker of plasma itself, and is excluded from live cells. Intact blood vessels, including the capillary system, retain this dye under normal circumstances. A compound, which induces degranulation of mast cells (resulting in leukotriene and histamine release), is injected into the skin to simulate allergen-induced degranulation. In these experiments, Compound 48/80 was used for this purpose. In the events following leukotriene and histamine release, capillary permeability is increased, and plasma, dyed blue, leaks from capillaries and dyes the skin surrounding the injection site blue. The area of bluing is a measure of the amount of Compound 48/80 injected.
A compound can be tested for “anti-leukotriene” and/or “anti-histamine” activity by mixing it with Compound 48/80 prior to injection.
The rat skin model was undertaken and validated. Various peptides were tested at a predetermined dose for anti-leukotriene and/or anti-histamine activity. The dose selected allowed a general comparison to f-Met-Leu-Phe, which was standard compound for comparison.
A “dose response” titration was performed for some compounds and compared with the standard compound. Observing serial decreases in the size areas of capillary permeability using serially smaller doses of the putative inhibitory compound validates the inhibition of leukotriene and/or histamine release observed in the initial predetermined dose test.
Reagents were obtained from Sigma or Aldrich, with the exception of ketamine, a veterinary anaesthetic that was obtained from various veterinary suppliers. The rats used were male Sprague-Dawley breed, 220-240 g at time of purchase from B&K International.
For the rat skin reaction, rats were anaesthetized with 0.25 ml 10 mg/ml ketamine. 1.0 ml trypan blue in saline (sterile filtered) was administered in a tail vein, and the back of the rat was shaved. Four intradermal injection sites per rat were used for test and control injections.
Compound 48/80 was prepared as a 1.5 mg/ml stock solution in saline. […] Serial dilutions in saline to working levels were prepared just prior to injection of each rat.
Peptides were prepared as a 23 mM stock solution in DMSO, and stored at −20° C. between experiments. At the time of use, the frozen stock solutions were thawed, and appropriate aliquots added to dilutions of Compound 48/80, along with appropriate amounts of DMSO, to result in the ratio of 5 μl DMSO to 0.1 ml aqueous Compound 48/80.
For injections, 0.1 ml […], +1/− test compounds were injected intradermally into anaesthetized, dyed, and shaved rats. Following a 15 minute incubation, the rats were sacrificed by cervical dislocation and the back skin was evulsed and placed on a light box. An image of the backlit skin was digitized using a CCD video capture camera and compatible hardware/software. The digitized image was analyzed using a scientific graphics analysis software package, and the areas of capillary permeability (bluing) were integrated and digital values were obtained for further analysis.
A dose response curve was generated using Compound 48/80 at various doses from ca. 0.01 μg through ca. 15 μg. […] A dose of 0.15 μg of Compound 48/80 was selected for conducting further tests.
Several f-Met-Leu peptides were tested for inhibition of induced degranulation in the rat skin model using 100 nanomoles of the test peptide and a dose of 0.15 μg Compound 48/80. An intrinsic zero-peptide-dose 48/80 control was included in each rat for each experiment, and the % of inhibition was expressed in relative terms to this control (0% inhibition). The percent mast cell degranulation produced by 48/80 was also determined.

f-Met-Leu-Phe-Phe (For-MLFF) [Example 9]
inhibition of induced degranulation compared with standard f-Met-Leu-Phe (dose response): unexpectedly substantially better than that of the standard compound f-Met-Leu-Phe
dose response, inhibition of degranulation induced by Compound 48/80 (doses of 0 to about 230 nM peptide, FIG. 2 / FIG. 3): Surprisingly remarkable inhibition of degranulation induced by Compound 48/80 was clearly shown
% Degranulation (percent mast cell degranulation produced by 48/80, 100 nanomoles peptide): 1-3%
